Here are results for 4 compounds from patent US12391737B2, “Soluble NPY2 receptor agonists” (Boehringer Ingelheim International GmbH, priority 2020, dated 2025).

One series is described as follows: Solubility determination. The following applies: for Sol6: pH 6; for Sol7: pH 7. The procedure, abridged: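 Sample: TFA-salt peptide at 10 mg/ml target in 0.1 M Na diphosphate, pH 6.4 or 7.0, shaken 2 h RT, filtered, diluted to 1 mg/ml.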
Series [1] has as its target T1, Human Neuropeptide Y2 Receptor (Homo sapiens, UniProt P49146).
T1 construct: purchased CHEMICON HTS066M
T1 sequence (P49146 1-381): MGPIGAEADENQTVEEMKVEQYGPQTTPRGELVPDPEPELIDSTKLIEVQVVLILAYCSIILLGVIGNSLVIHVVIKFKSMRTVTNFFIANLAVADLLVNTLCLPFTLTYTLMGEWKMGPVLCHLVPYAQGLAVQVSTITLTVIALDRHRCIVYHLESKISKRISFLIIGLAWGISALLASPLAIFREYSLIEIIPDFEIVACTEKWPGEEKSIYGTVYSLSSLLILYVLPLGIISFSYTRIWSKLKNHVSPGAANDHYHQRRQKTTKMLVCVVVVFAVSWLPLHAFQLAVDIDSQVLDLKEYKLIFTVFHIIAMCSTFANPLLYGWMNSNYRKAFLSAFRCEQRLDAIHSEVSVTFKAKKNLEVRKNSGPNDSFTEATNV
Briefly: Radioligand binding competition assay (RLB). Conditions: Table 3, 125I-PYY(1-36) competition; read-out: Ki. In short, it runs like this: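 Displacement of radioligand is measured after 2 h at room temperature with receptor membranes in Mg2+/Ca2+ HEPES buffer, pH 7.4. Filter-bound radioactivity is counted and IC50 obtained from curve fitting.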

By Ki is commonly meant the dissociation constant of the complex between target and ligand, obtained from inhibition or displacement. As for `CC[C@H](C)[C@H](NC(=O)[C@H](CCC(=O)O)NC(=O)[C@H](CCC(=O)O)NC(=O)[C@@H]1CCCN1C(=O)[C@H](CO)NC(=O)[C@H](C)NC(=O)[C@H](CC(=O)O)NC(=O)[C@H](C)NC(=O)[C@@H]1CCCN1C(=O)[C@@H]1CCCN1C(=O)[C@H](CCCCNC(=O)CCCCCNC(=O)CC[C@H](NC(=O)CCCCCCCCCCCCCCCCC(=O)O)C(=O)O)NC(=O)[C@H](CCC(=O)O)NC(=O)[C@@H]1CCCN1C(=O)[C@H](C)NC(=O)CC(C)C)C(=O)N[C@@H](CCC(N)=O)C(=O)N[C@@H](CCCNC(=N)N)C(=O)N[C@@H](Cc1ccc(O)cc1)C(=O)N[C@@H](Cc1ccc(O)cc1)C(=O)N[C@H](C(=O)N[C@@H](CO)C(=O)N[C@@H](CC(C)C)C(=O)N[C@@H](CCCNC(=N)N)C(=O)N[C@@H](Cc1c[nH]cn1)C(=O)N[C@@H](Cc1ccc(O)cc1)C(=O)N[C@@H](Cc1ccc(O)cc1)C(=O)N[C@@H](CC(N)=O)C(=O)N[C@@H](Cc1c[nH]c2ccccc12)C(=O)N[C@@H](CC(C)C)C(=O)N[C@H](C(=O)N[C@@H](CCCNC(=N)N)C(=O)N[C@@H](CCC(N)=O)C(=O)N[C@@H](CCCNC(=N)N)C(=O)N[C@@H](Cc1ccc(O)cc1)C(N)=O)[C@@H](C)O)C(C)C` [Compound 61, N{alpha-4}-(3-methylbutanoyl)-N{epsilon-7}-(6-[(4S)-4-carboxy-4-(17-carboxyheptadecanamido)butanamido]hexanoyl)-[4A,7K,9P,10A,17I,18Q,22V,28Y,30W,31L]-hPYY(4-36)], in “Solubility determination”, the “Sol6” value was determined as 0.1 mg/mL and the “Sol7” value came out at 8.9 mg/mL. Moreover, the Ki in series [1] was found to be 0.41 nM.

`CC(C)CC(=O)N[C@@H](C)C(=O)N1CCC[C@H]1C(=O)N[C@@H](C)C(=O)N[C@@H](CCCCNC(=O)CCCCCNC(=O)CC[C@H](NC(=O)CCCCCCCCCCCCCCCCC(=O)O)C(=O)O)C(=O)N1CCC[C@H]1C(=O)N1CCC[C@H]1C(=O)N[C@@H](CCC(=O)O)C(=O)N[C@@H](CC(=O)O)C(=O)N[C@@H](C)C(=O)N[C@@H](CO)C(=O)N1CCC[C@H]1C(=O)N[C@@H](CCC(=O)O)C(=O)N[C@@H](CCC(=O)O)C(=O)N[C@@H](CC(C)C)C(=O)N[C@@H](CCC(N)=O)C(=O)N[C@@H](CCCNC(=N)N)C(=O)N[C@@H](Cc1ccc(O)cc1)C(=O)N[C@@H](Cc1ccc(O)cc1)C(=O)N[C@H](C(=O)N[C@@H](CCC(=O)O)C(=O)N[C@@H](CC(C)C)C(=O)N[C@@H](CCCNC(=N)N)C(=O)N[C@@H](Cc1c[nH]cn1)C(=O)N[C@@H](Cc1ccc(O)cc1)C(=O)N[C@@H](Cc1ccc(O)cc1)C(=O)N[C@@H](CC(N)=O)C(=O)N[C@@H](Cc1c[nH]c2ccccc12)C(=O)N[C@@H](CC(C)C)C(=O)N[C@H](C(=O)N[C@@H](CCCNC(=N)N)C(=O)N[C@@H](CCC(N)=O)C(=O)N[C@@H](CCCNC(=N)N)C(=O)N[C@@H](Cc1ccc(O)cc1)C(N)=O)[C@@H](C)O)C(C)C` [Compound 62, N{alpha-4}-(3-methylbutanoyl)-N{epsilon-7}-(6-[(4S)-4-carboxy-4-(17-carboxyheptadecanamido)butanamido]hexanoyl)-[4A,6A,7K,9P,18Q,22V,23E,28Y,30W,31L]-hPYY(4-36)]: in the series “Solubility determination”, the “Sol6” value was 8.8 mg/mL and the “Sol7” value is 9.3 mg/mL. Also, in series [1], the Ki stood at 1.44 nM.

Regarding `CC[C@H](C)[C@H](NC(=O)[C@H](Cc1ccc(O)cc1)NC(=O)[C@H](Cc1ccc(O)cc1)NC(=O)[C@H](CCCNC(=N)N)NC(=O)[C@H](CCC(N)=O)NC(=O)[C@H](CC(C)C)NC(=O)[C@H](CCC(=O)O)NC(=O)[C@H](CCC(=O)O)NC(=O)[C@@H]1CCCN1C(=O)[C@@H](NC(=O)[C@H](C)NC(=O)[C@H](CC(=O)O)NC(=O)[C@H](CCC(=O)O)NC(=O)[C@H](CCC(=O)O)NC(=O)[C@@H]1CCCN1C(=O)[C@H](CCCCNC(=O)CCCCCNC(=O)CC[C@H](NC(=O)CCCCCCCCCCCCCCCCC(=O)O)C(=O)O)NC(=O)[C@H](CCC(=O)O)NC(=O)[C@@H]1CCCN1C(=O)[C@H](C)NC(=O)CC(C)C)[C@@H](C)O)C(=O)N[C@@H](CO)C(=O)N[C@@H](CC(C)C)C(=O)N[C@@H](CCCNC(=N)N)C(=O)N[C@@H](Cc1c[nH]cn1)C(=O)N[C@@H](Cc1ccc(O)cc1)C(=O)N[C@@H](Cc1ccc(O)cc1)C(=O)N[C@@H](CC(N)=O)C(=O)N[C@@H](Cc1c[nH]c2ccccc12)C(=O)N[C@@H](CC(C)C)C(=O)N[C@H](C(=O)N[C@@H](CCCNC(=N)N)C(=O)N[C@@H](CCC(N)=O)C(=O)N[C@@H](CCCNC(=N)N)C(=O)N[C@@H](Cc1ccc(O)cc1)C(N)=O)[C@@H](C)O` [Compound 66, N{alpha-4}-(3-methylbutanoyl)-N{epsilon-7}-(6-[(4S)-4-carboxy-4-(17-carboxyheptadecanamido)butanamido]hexanoyl)-[4A,7K,9E,13T,18Q,22I,28Y,30W,31L]-hPYY(4-36)], in “Solubility determination”, the “Sol6” value turned out to be 9.2 mg/mL and the “Sol7” value was 9.2 mg/mL. The inhibition constant Ki in series [1] is 2.33 nM.

For the compound `CC(C)CC(=O)N[C@@H](C)C(=O)N1CCC[C@H]1C(=O)N[C@@H](CCC(=O)O)C(=O)N[C@@H](CCCCNC(=O)CCCCCNC(=O)CC[C@H](NC(=O)CCCCCCCCCCCCCCCCC(=O)O)C(=O)O)C(=O)N1CCC[C@H]1C(=O)N[C@@H](CCC(=O)O)C(=O)N[C@@H](CCC(=O)O)C(=O)N[C@@H](CC(=O)O)C(=O)N[C@@H](C)C(=O)N[C@@H](CCC(=O)O)C(=O)N1CCC[C@H]1C(=O)N[C@@H](CCC(=O)O)C(=O)N[C@@H](CCC(=O)O)C(=O)N[C@@H](CC(C)C)C(=O)N[C@@H](CCC(N)=O)C(=O)N[C@@H](CCCNC(=N)N)C(=O)N[C@@H](Cc1ccc(O)cc1)C(=O)N[C@@H](Cc1ccc(O)cc1)C(=O)N[C@H](C(=O)N[C@@H](CO)C(=O)N[C@@H](CC(C)C)C(=O)N[C@@H](CCCNC(=N)N)C(=O)N[C@@H](Cc1c[nH]cn1)C(=O)N[C@@H](Cc1ccc(O)cc1)C(=O)N[C@@H](Cc1ccc(O)cc1)C(=O)N[C@@H](CCC(N)=O)C(=O)N[C@@H](Cc1c[nH]c2ccccc12)C(=O)N[C@@H](CC(C)C)C(=O)N[C@H](C(=O)N[C@@H](CCCNC(=N)N)C(=O)N[C@@H](CCC(N)=O)C(=O)N[C@@H](CCCNC(=N)N)C(=O)N[C@@H](Cc1ccc(O)cc1)C(N)=O)[C@@H](C)O)C(C)C` [Compound 68, N{alpha-4}-(3-methylbutanoyl)-N{epsilon-7}-(6-[(4S)-4-carboxy-4-(17-carboxyheptadecanamido)butanamido]hexanoyl)-[4A,7K,9E,13E,18Q,22V,28Y,29Q,30W,31L]-hPYY(4-36)], in “Solubility determination”, the “Sol6” value is 9.9 mg/mL and the “Sol7” value amounted to 10.0 mg/mL. In addition, the inhibition constant Ki in series [1] came out at 9.07 nM.
